Values of other authors as cited in patent publication US20030114418A1, “Method for the treatment and prevention of pain and inflammation with glucosamine and a cyclooxygenase-2 selective inhibitor and compositions therefor” (Pharmacia Corporation, priority 2001, published 2003).

Key:
knee osteoarthritis = conditions: patients with knee osteoarthritis, 1500 mg/day, 3 years

Row | Compound | selectivity for the inhibition of Cox-2 versus Cox-1 (Cox-2) | further results
1 | N[C@H]1C(O)O[C@H](CO)[C@@H](O)[C@@H]1O.O=S(=O)(O)O (stereo partly shown) [glucosamine sulfate] | – | joint-space loss (knee osteoarthritis): no significant joint-space loss
2 | CC(=O)N[C@H]1C(O)O[C@H](CO)[C@@H](O)[C@@H]1O (stereo partly shown) [N-acetylglucosamine] | – | effect on il-1beta-mediated activation of human chondrocytes (human chondrocytes): prevent il-1beta-mediated activation of human chondrocytes
3 | CC1(C)CC[C@]2(C(=O)O)CC[C@]3(C)C(=CC[C@@H]4[C@@]5(C)CC[C@H](O)C(C)(C)[C@@H]5CC[C@]43C)[C@@H]2C1 [oleanic acid] | not substantially more selective for the inhibition of Cox-2 than for Cox-1 | –
4 | C[C@H]1[C@H](C)CC[C@]2(C(=O)O)CC[C@]3(C)C(=CC[C@@H]4[C@@]5(C)CC[C@H](O)C(C)(C)[C@@H]5CC[C@]43C)[C@H]12 [ursolic acid] | not substantially more selective for the inhibition of Cox-2 than for Cox-1 | –
